In patent US9604931B2, “Nuclear receptor binding agents” (GTx, Inc., priority 2007, dated 2017):
“Also recorded” adds a separate entry of the source.

Key:
[1] = test system: high fat diet (HFD) induced obesity model; assay: High fat diet induced obesity, prevention studies; format: in vivo, C57BL6 male mice; settings: for Prevention of the increase in body fat (MRI) / Prevention of body weight increase caused by the high fat diet: Study 2, 30 mg/kg/day s.c.; for Lean mass (MRI): Study 2, high fat diet; for Fat mass (MRI): Study 2, versus high fat diet and vehicle
Procedure: The mice were treated for 12 weeks.

[2] = test system: rat aorta rings; assay: Rat aortic ring relaxation; settings: 10^-6 PE constriction; for EC50: Rattus norvegicus
Source text: Experimental protocol. Equipment used in these studies included a 4-tissue bath system with reservoirs and circulators (RadnotiGlass Technology, Monrovia, Calif.), DSI/Ponemah tissue force analyzer 7700 (Valley View, Ohio), and iWorx/CB Sciencesforce transducers FT-302. The 250 g rats were anesthetized with isoflurane to produce deep anesthesia. The chest of the rat was opened, and about 3 cm length of aorta was removed and placed in a Petri dish containing room temperature Krebs salt solution (KSS, in mM: 120 NaCl, 5 KCl, 1.2 MgSO4.7H20, 2.5 CaCl2.2H2O, 1 KH2PO4, 25 NaHCO3, and 11 glucose). Fat and connective tissue were removed from the aorta taking care not to stretch the vessel. The aorta was then divided into 3-mm-wide rings. Triangular wire holders were inserted through the lumen of the vessel and connected to the force transducer and tissue holder rod in the vessel bath.
Analog-to-digital conversions of force waveforms were accomplished with a DSI/Ponemah tissue force analyzer 7700. The converted data were automatically analyzed with Ponemah Physiology-Smooth Muscle software. All data are summarized as means±standard error. Differences between means were assessed by a conventional ANOVA. This was followed by Student's test. P<0.05 was considered to be statistically significant.
The tension on the rings was adjusted to 1.0 g passive force using the tension adjustment dial for each transducer and allowed to equilibrate for 60 min in the bath with a 95% O2-5% CO2 gas mixture. The rings were washed with fresh buffer every 20 min. Passive force was readjusted to 1.0 g as needed during this period. When rings were stable at 1.0 g of passive force, the baseline was calculated.
Phenylephrine (PE) at a final concentration of […] was added to the bath to contract the ring, and force was allowed to stabilize for 10 min. Then acetylcholine (ACH) at a final concentration of 10^−5 M was added to the precontracted rings to test for endothelial integrity […]. After the initial test for vessel viability and endothelial integrity, the rings were washed three times for 10 min with buffer, allowing it to equilibrate to active force stabilized at 1 g.
Cumulative concentration-response curves to NRBAs were created by increasing the NRBAs concentration in the tissue bath by successive addition of appropriate dilutions of stock solutions to achieve final bath concentrations of 300 nM to 0.15 mM NRBAs.
Table 10 summarizes EC50 values and maximal % decrease of the 10^−6 PE constriction of the aortic ring for individual NRBAs tested

[3] = test system: receptors for progesterone, mineralocorticoids, androgens, glucocorticoids, FXR, PXR, LXR, RXR, PPAR-α, PPAR-γ and ERR-α, ERR-β and ERR-γ; assay: Transactivation assays for cross reactivity with 13 other NHR; format: cell-based; settings: concentrations as high as 10 μM; data not shown
[4] = test system: SHP promoter; assay: SHP promoter-luciferase assay in HEK-293 cells; format: cell-based; settings: transfected with FXR and ER-β
Procedure: FIG. 12 depicts the effect of ER-β ligand on PPAR-γ function through ligand binding domain (LBD). (A). HEK-293 cells were transfected with 0.25 μg PPRE-LUC, 5 ng CMV-renilla LUC and the indicated receptors (PPAR-γ and ER-β for the left panel and PPAR-α and ER-β for the right panel). The cells were treated 24 hrs after transfection with the indicated ligands and harvested 48 hrs after transfection and firefly luciferase activity was measured and normalized to renilla luciferase. (B). H475 in ER-β LBD is important for its function. H475 in ER-β LBD was mutated to alanine (A) using a site directed mutagenesis kit. Transactivation assay was performed as described in panel A in HEK-293 cells with a titration of ER-β ligands in wild type (WT) or ER-β H475A. (C). […] HEK-293 cells were transfected with 0.25 μg PPRE-LUC, 5 ng CMV-renilla LUC and 50 ng of the indicated receptors (PPAR-γ or PPAR-γ and wild type ER-β or PPAR-γ and ER-β H475A). The cells were treated 24 hrs after transfection with the indicated ligands and harvested 48 hrs after transfection and firefly luciferase activity was measured and normalized to renilla luciferase. (D). […] HepG2 cells were transfected with 0.25 μg PPRE-LUC, 5 ng CMV-renilla LUC, 0.5 μg PGC-1 or vector backbone and 100 ng of the indicated receptors (PPAR-γ or PPAR-γ and wild type ER-β or PPAR-γ and ER-β H475A for top panels and PPAR-α or PPAR-α and ER-β for bottom panel). The cells were treated 24 hrs after transfection with the indicated ligands and harvested 48 hrs after transfection and firefly luciferase activity was measured and normalized to renilla luciferase. (E). SHP-1 is an ER-β specific target gene. HEK-293 cells were transfected with 0.25 μg SHP-LUC, 5 ng CMV-renilla LUC and 50 ng of the indicated receptors (FXR and ER-α for the left panel and FXR and ER-β for the right panel). The cells were treated 24 hrs after transfection with the indicated ligands and harvested 48 hrs after transfection and firefly luciferase activity was measured and normalized to renilla luciferase. PPAR—peroxisome proliferator and activated receptor; ER—estrogen receptor; H—histidine; A—alanine; RLU—relative luciferase units; Tro—troglitazone; PGC-1—PPAR-γ coactivator; SHP—small heterodimer partner; FXR—farsenoid X receptor.
Human estrogen receptors (ER-α and ER-β) were cloned from prostate cDNA into a pCR3.1 plasmid vector backbone. PGC-1 was cloned into mammalian two hybrid vector pACT. ER-β H475 was mutated to alanine using site-directed mutagenesis. Sequencing was performed to determine the absence of any non specific mutations. SHP promoter (−572 to +10) (26) was cloned into pGL3 basic LUC reporter vector and human FXR was cloned into pCR3.1. […]

[5] = molecular target: ERα ligand binding domain (Homo sapiens, UniProt P03372); assay: Competitive [3H]-estradiol binding assay, ER-α (Example 21)
Procedure: ER binding affinity was determined via one of the following methods:
Briefly, the incubation mixture was filtered through a high affinity protein binding filter, and washed several times to remove any unbound radioactivity. The filter plate was air dried and sealed on the bottom.
Nonspecific binding was subtracted from total binding to yield specific binding.

[6] = high fat diet, 30 mg/kg/day s.c.
[7] = high fat diet, 30 mg/kg/day s.c., 12 weeks

Chain of ERα ligand binding domain (P03372 whole entry, looked up, the tested form may be a part): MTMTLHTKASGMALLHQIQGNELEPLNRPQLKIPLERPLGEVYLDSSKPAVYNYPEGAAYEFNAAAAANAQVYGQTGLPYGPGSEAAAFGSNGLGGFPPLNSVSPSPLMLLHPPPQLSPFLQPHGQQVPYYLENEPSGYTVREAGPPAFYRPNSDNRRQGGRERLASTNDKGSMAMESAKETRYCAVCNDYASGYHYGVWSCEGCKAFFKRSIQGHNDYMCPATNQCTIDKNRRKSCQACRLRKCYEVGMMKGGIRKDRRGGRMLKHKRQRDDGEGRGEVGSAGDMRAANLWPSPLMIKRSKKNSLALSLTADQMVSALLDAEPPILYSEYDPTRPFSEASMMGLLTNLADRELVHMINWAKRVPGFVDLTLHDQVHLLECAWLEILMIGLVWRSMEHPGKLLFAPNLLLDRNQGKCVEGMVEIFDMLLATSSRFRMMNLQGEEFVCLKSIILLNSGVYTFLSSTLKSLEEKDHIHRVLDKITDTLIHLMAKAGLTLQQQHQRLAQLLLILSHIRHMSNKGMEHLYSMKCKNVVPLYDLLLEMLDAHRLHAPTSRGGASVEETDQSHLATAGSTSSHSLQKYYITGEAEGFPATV

Compound | Prevention of the increase in body fat (MRI) [1] | Prevention of body weight increase caused by the high fat diet ([1]; 12 weeks) | Lean mass (MRI) [1] | Fat mass (MRI) [1] | Body weight versus normal diet controls [1, 7] | Gastrocnemius muscle weight ([1]; high fat diet, 12 weeks) | Serum testosterone levels ([1]; high fat diet, 12 weeks) | Testes weights ([1]; high fat diet, 12 weeks) | White adipose tissue (WAT) weight ([1]; high fat diet, 12 weeks) | Mean of Maximal % Decrease of the PE constriction of the aortic ring [2] | EC50 [2] | Cross reactivity with 13 other NHR [3] | SHP promoter activity [4] | further results
N#Cc1cn(-c2ccc(O)cc2)c(=O)c2c(O)cc(O)cc12 [14m, 6,8-dihydroxy-2-(4-hydroxyphenyl)-1-oxo-1,2-dihydroisoquinoline-4-carbonitrile] | more than 50% | more than 50% | increased muscle mass; also recorded: increased the lean mass | reduced fat mass; also recorded: significant reduction in fat mass | statistically indistinguishable from control mice; also recorded: statistically indistinguishable from the normal diet controls | increased gastrocnemius muscle weight | did not affect the serum testosterone levels; also recorded: not altered | not altered | prevented the increase in the WAT weight; also recorded: significantly reduced; also recorded: decreased WAT weight | 94.49% | 7.64 µM | did not cross react | neither of the ligands activated SHP | Accumulation of fat in liver (oil red staining) ([1]; high fat diet): attenuated the accumulation of lipid droplets in the liver; also recorded: completely prevented the accumulation of fat in the liver; Serum cholesterol increase ([1]; high fat diet): significantly reversed; Serum leptin increase ([1]; high fat diet): significantly reversed; Serum macrophage inflammatory protein-1β (MIP-1β) ([1]; high fat diet): undetectable levels; Bone mineral content (BMC, DEXA) [1, 6]: prevented the loss in BMC; Feed consumption / total caloric intake [1, 6]: did not affect total caloric intake; Body fat (DEXA) [1, 7]: suppressing fat mass formation; Reduction in body weight compared to high fat diet and vehicle [1, 7]: greater than 85%; Weight gained more than normal diet-fed controls [1, 7]: 5%; Blood glucose levels in glucose tolerance test ([1]; high fat diet, 150 mg glucose orally): not statistically different from the normal diet controls; Serum follicle stimulating hormone (FSH) levels ([1]; high fat diet, 12 weeks): did not affect serum testosterone and follicle stimulating hormone (FSH) levels; Ki ([5]; read-out: ER-α binding constant (Ki)): 0.094 µM
O=c1c2c(O)cc(O)cc2c(Br)cn1-c1ccc(O)cc1 [12u, 4-bromo-6,8-dihydroxy-2-(4-hydroxyphenyl)isoquinolin-1(2H)-one] | more than 50% | more than 50% | increased muscle mass; also recorded: increased the lean mass | reduced fat mass; also recorded: significant reduction in fat mass | statistically indistinguishable from the normal diet controls | increased gastrocnemius muscle weight | did not affect the serum testosterone levels; also recorded: not altered | not altered | prevented the increase in the WAT weight; also recorded: decreased WAT weight | 50.97% | 30 µM | did not cross react | neither of the ligands activated SHP | inhibition at 0.1 µM ([5]; 100 nM of compound, read-out: Percent Inhibition of [3H]-Estradiol Binding to ER-α): 61.3%
